For this experiment, the system named is P388 leukemia ip, CD2F1 mice, survival T/C. Kind of experiment: NCI In Vivo Anticancer Drug Screen. Data for tumor model P388 Leukemia (intraperitoneal) in CD2F1 (CDF1) mice. As to conditions: endpoint: median survival time, higher = longer survival. An outline of the steps: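 Mice carrying the transplanted tumor received test compound or vehicle. Survival was recorded in each group, and the value is the treated-group measurement divided by that of the vehicle-treated control group.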

[1] abbreviates: dose: 50.0 mg/kg/injection, schedule: Q01DX009 (ip), vehicle: saline with Tween-80.
Setting [2] is: dose: 50.0 mg/kg/injection, schedule: Q01DX005 (ip), vehicle: saline.
Setting [3] is: dose: 100.0 mg/kg/injection, schedule: Q01DX005 (ip), vehicle: saline.
[4] abbreviates: dose: 200.0 mg/kg/injection, schedule: Q01DX005 (ip), vehicle: saline.
Setting [5] is: dose: 1.25 mg/kg/injection, schedule: Q01DX009 (ip), vehicle: other.
Setting [6] is: dose: 50.0 mg/kg/injection, schedule: Q01DX005 (ip), vehicle: saline with Tween-80.
The mark [7] stands for this setting: dose: 100.0 mg/kg/injection, schedule: Q01DX005 (ip), vehicle: saline with Tween-80.
Setting [8] is: dose: 200.0 mg/kg/injection, schedule: Q01DX005 (ip), vehicle: saline with Tween-80.
Setting [9] is: dose: 50.0 mg/kg/injection, schedule: Q01DX009 (ip), vehicle: saline.

Several values for one entry are separate records, joined by “and”; a condition that tells them apart may be missing. Identical values can stand only once. Toxic doses and inconclusive results are not listed.

For the compound `CC(=O)N1C(=O)C2C3C=CC(C3)C2C(=O)N1C(C)=O` (stereo not drawn), the T/C runs as follows: (dose: 6.25 mg/kg/injection, schedule: Q01DX009 (ip), vehicle: saline with Tween-80) 96 % of control; (dose: 12.5 mg/kg/injection, schedule: Q01DX009 (ip), vehicle: saline with Tween-80) 97 % of control; (dose: 25.0 mg/kg/injection, schedule: Q01DX009 (ip), vehicle: saline with Tween-80) 102 % of control; under setting [1], 106 % of control and 86 % of control.
On to `O=c1n(-c2ccccc2)c(=O)n2n1C1C3C4C5C1C5C2C43` (stereo not drawn), for which the T/C by setting is: (dose: 6.25 mg/kg/injection, schedule: Q01DX009 (ip), vehicle: Klucel (hydroxypropylcellulose) (HPC)) 100 % of control; (dose: 12.5 mg/kg/injection, schedule: Q01DX009 (ip), vehicle: Klucel (hydroxypropylcellulose) (HPC)) 87 % of control.
For the compound `CC(C)CC(NC(=O)C(C)N)C(N)=O` (stereo not drawn), the T/C was 99 % of control under setting [2], 103 % of control under setting [3] and 96 % of control under setting [4].
In the case of `CCC1(c2ccccc2)C(C#N)C(=O)NC(=O)C1C#N` (stereo not drawn), the T/C runs as follows: (dose: 60.0 mg/kg/injection, schedule: Q01DX005 (ip), vehicle: saline with Tween-80) 106 % of control; (dose: 120.0 mg/kg/injection, schedule: Q01DX005 (ip), vehicle: saline with Tween-80) 99 % of control; (dose: 240.0 mg/kg/injection, schedule: Q01DX005 (ip), vehicle: saline with Tween-80) 101 % of control.
As for `COC1C(C)OC(OC2CC(C)(O)Cc3cc4c(c(O)c32)C(=O)c2c(O)cc3c(c2C4=O)OC2OC3(C)C(O)C(N(C)C)C2O)C(OC)C1(C)OC` (stereo not drawn), the T/C reads like this: (dose: 0.6 mg/kg/injection, schedule: Q01DX009 (ip), vehicle: other) 124 % of control; (dose: 0.75 mg/kg/injection, schedule: Q04DX003 (ip), vehicle: saline) 121 % of control; (dose: 1.0 mg/kg/injection, schedule: Q01DX009 (ip), vehicle: saline) 151 % of control; (dose: 1.0 mg/kg/injection, schedule: Q04DX003 (ip), vehicle: saline) 121 % of control; under setting [5], 151 % of control; (dose: 1.25 mg/kg/injection, schedule: Q04DX003 (ip), vehicle: other) 124 % of control. Besides, the T/C is 160 % of control (dose: 1.5 mg/kg/injection, schedule: Q01DX009 (ip), vehicle: saline); 160 % of control (dose: 2.0 mg/kg/injection, schedule: Q01DX009 (ip), vehicle: saline); 174 % of control (dose: 2.5 mg/kg/injection, schedule: Q01DX009 (ip), vehicle: saline); 153 % of control (dose: 2.5 mg/kg/injection, schedule: Q04DX003 (ip), vehicle: other); 169 % of control (dose: 3.0 mg/kg/injection, schedule: Q01DX009 (ip), vehicle: saline); 180 % of control (dose: 4.0 mg/kg/injection, schedule: Q01DX009 (ip), vehicle: saline). In addition, the T/C runs as follows: (dose: 5.0 mg/kg/injection, schedule: Q01DX009 (ip), vehicle: saline) 193 % of control; (dose: 5.0 mg/kg/injection, schedule: Q04DX003 (ip), vehicle: saline) 150 % of control; (dose: 6.0 mg/kg/injection, schedule: Q04DX003 (ip), vehicle: water) 153 % of control; (dose: 10.0 mg/kg/injection, schedule: Q04DX003 (ip), vehicle: other) 165 % of control; (dose: 10.0 mg/kg/injection, schedule: Q04DX003 (ip), vehicle: saline with Tween-80) 157 % of control; (dose: 10.0 mg/kg/injection, schedule: Q04DX003 (ip), vehicle: saline) 156 % of control. In addition, the T/C reads like this: (dose: 10.0 mg/kg/injection, schedule: Q04DX003 (ip), vehicle: water) 157 % of control; (dose: 12.0 mg/kg/injection, schedule: Q04DX003 (ip), vehicle: saline) 158 % of control; (dose: 12.5 mg/kg/injection, schedule: Q01DX001 (sc), vehicle: other) 103 % of control; (dose: 15.0 mg/kg/injection, schedule: Q04DX003 (ip), vehicle: saline with Tween-80) 150 % of control; (dose: 16.0 mg/kg/injection, schedule: Q04DX003 (ip), vehicle: saline) 112 % of control; (dose: 20.0 mg/kg/injection, schedule: Q04DX003 (ip), vehicle: other) 124 % of control. Further, the T/C is 157 % of control and 175 % of control (dose: 25.0 mg/kg/injection, schedule: Q01DX001 (ip), vehicle: other); 100 % of control and 102 % of control (dose: 25.0 mg/kg/injection, schedule: Q01DX001 (sc), vehicle: other); 103 % of control and 105 % of control (dose: 50.0 mg/kg/injection, schedule: Q01DX001 (sc), vehicle: other); 99 % of control (dose: 100.0 mg/kg/injection, schedule: Q01DX001 (sc), vehicle: other); 118 % of control (dose: 625.0 micrograms/kg/injection, schedule: Q01DX009 (ip), vehicle: other); 157 % of control (dose: 1250.0 micrograms/kg/injection, schedule: Q01DX009 (ip), vehicle: other). Further, the T/C runs as follows: (dose: 2500.0 micrograms/kg/injection, schedule: Q01DX009 (ip), vehicle: other) 157 % of control and 172 % of control; (dose: 5000.0 micrograms/kg/injection, schedule: Q01DX009 (ip), vehicle: other) 90 % of control.
Turning to `CCCCOc1cccc2c(NCCCNCCCNc3c4ccccc4nc4c(OCCCC)cccc34)c3ccccc3nc12`, the T/C by setting is: (dose: 0.63 mg/kg/injection, schedule: Q01DX009 (ip), vehicle: other) 114 % of control; under setting [5], 121 % of control; (dose: 2.5 mg/kg/injection, schedule: Q01DX009 (ip), vehicle: other) 120 % of control and 124 % of control; (dose: 5.0 mg/kg/injection, schedule: Q01DX009 (ip), vehicle: other) 100 % of control.
Regarding `O=S1(=O)C(c2cccc(C(F)(F)F)c2)=C(O)c2cc3ccccc3nc21`, the T/C reads like this: (dose: 6.25 mg/kg/injection, schedule: Q01DX009 (ip), vehicle: saline + Tween-80 + alcohol) 105 % of control; (dose: 12.5 mg/kg/injection, schedule: Q01DX009 (ip), vehicle: saline + Tween-80 + alcohol) 105 % of control; (dose: 25.0 mg/kg/injection, schedule: Q01DX009 (ip), vehicle: saline + Tween-80 + alcohol) 100 % of control and 87 % of control; (dose: 50.0 mg/kg/injection, schedule: Q01DX009 (ip), vehicle: saline + Tween-80 + alcohol) 99 % of control; (dose: 100.0 mg/kg/injection, schedule: Q01DX009 (ip), vehicle: saline + Tween-80 + alcohol) 99 % of control.
Consider `CC(C)CCCN(CCCC(C)C)CC(O)c1cc2c(c3ccccc13)CCCC2` (stereo not drawn), for which the T/C under setting [6] was 113 % of control, the T/C under setting [7] was 103 % of control and the T/C under setting [8] is 113 % of control.
For `COc1ccc2c(c1)OC(=O)C(S(=O)(=O)c1ccccc1)C2` (stereo not drawn), the T/C is 102 % of control under setting [6], 96 % of control under setting [7] and 101 % of control under setting [8].
For `CNc1nc2c(N)ncnc2n1C1CC(O)C(CO)O1` (stereo not drawn), the T/C was 101 % of control (dose: 50.0 mg/kg/injection, schedule: Q01DX005 (ip), vehicle: Klucel (hydroxypropylcellulose) (HPC)); 96 % of control (dose: 100.0 mg/kg/injection, schedule: Q01DX005 (ip), vehicle: Klucel (hydroxypropylcellulose) (HPC)); 104 % of control (dose: 200.0 mg/kg/injection, schedule: Q01DX005 (ip), vehicle: Klucel (hydroxypropylcellulose) (HPC)).
Consider `O=C1Cc2csc3nc(=O)cc(n23)N1`, for which the T/C is 94 % of control under setting [2], 97 % of control under setting [3] and 88 % of control under setting [4].
For the compound `Cc1ccc2cccc(OC(=O)Nc3ccc(Cl)c(Cl)c3)c2n1`, the T/C reads like this: (dose: 12.5 mg/kg/injection, schedule: Q01DX009 (ip), vehicle: saline) 98 % of control; (dose: 25.0 mg/kg/injection, schedule: Q01DX009 (ip), vehicle: saline) 103 % of control; under setting [1], 91 % of control; under setting [9], 103 % of control; (dose: 100.0 mg/kg/injection, schedule: Q01DX009 (ip), vehicle: saline with Tween-80) 105 % of control.
Consider `O=C1CNC(=O)C(Cc2c[nH]c3ccccc23)N1` (stereo not drawn), for which the T/C runs as follows: under setting [9], 100 % of control; (dose: 100.0 mg/kg/injection, schedule: Q01DX009 (ip), vehicle: saline) 96 % of control; (dose: 200.0 mg/kg/injection, schedule: Q01DX009 (ip), vehicle: saline) 100 % of control.

These data come from PubChem BioAssay AID330 (DTP/NCI, 2004).
